Assay results: US5817692A, “Endoperoxides useful as antiparasitic agents” (priority 1996, dated 1998)
Read-outs that look alike come from different tables or passages of the source.

Experiments:
L929 cells = test: cytotoxicity to L929 cells, MTT assay (viability and replication); format: cell-based; design: Toxicity, Mean: unit not given here; settings: for Toxicity, Score / Toxicity, Mean / inhibition at 0.1 µM / inhibition at 1 µM / inhibition at 10 µM / inhibition at 50 µM: L929 cells; for Toxicity, Mean: MTT; for inhibition at 0.1 µM / inhibition at 1 µM / inhibition at 10 µM / inhibition at 50 µM: Mus musculus, read-out: Toxicity, % of control (inhibition)
Procedure: Toxoplasma gondii is the causative agent of cerebral toxoplasmic encephalitis, an AIDS-related opportunistic infection. The biological activity of the endoperoxide JHU 2886 of the present invention was measured against Toxoplasma gondii cultured in L929 cells.
More specifically, the cytotoxicity of synthetic organic endoperoxide JHU 2886 was tested in L929 cells by measuring the viability and replication of exposed cells. The cytotoxicity of the compound to the cultured cells was measured using the MTT assay (Promega kit), according to the procedure of Carmichael et al. (18). MTT is an abbreviation for [3-(4,5-dimethylthiazol-2-yl)-2,5-dephenyltetrazolium bromide].
This compound is referred to as JHU 2886 in Table 1. In this experiment atovaquone and artemisinin were used as positive controls. Atovaquone is a broad-spectrum anti-infective drug having antimalarial and antitoxoplasmosis activity (19).
^1 The cytotoxicity of each compound for the cultured cells was
measured using the MTT assay (Promega kit) and inhibition of the […]

Toxoplasma gondii = test: inhibition of intracellular replication of T. gondii in infected L929 cells, uracil incorporation assay; format: cell-based; design: Activity, Mean: unit not given here; settings: for Activity, Mean: uracil incorporation; for inhibition at 1 µM / inhibition at 10 µM / inhibition at 50 µM / inhibition at 0.1 µM: Toxoplasma gondii, L929, read-out: Activity, % of control (inhibition)
Procedure: Toxoplasma gondii is the causative agent of cerebral toxoplasmic encephalitis, an AIDS-related opportunistic infection. The biological activity of the endoperoxide JHU 2886 of the present invention was measured against Toxoplasma gondii cultured in L929 cells. The inhibitory activity of the synthetic organic endoperoxide was tested by measuring the intracellular replication of T. gondii in infected L929 cells. The inhibition of the intracellular replication of T. gondii was determined using the uracil incorporation assay (20). […] This compound is referred to as JHU 2886 in Table 1. In this experiment atovaquone and artemisinin were used as positive controls. Atovaquone is a broad-spectrum anti-infective drug having antimalarial and antitoxoplasmosis activity (19). | measured using the MTT assay (Promega kit) and inhibition of the | intracellular replication of T. gondii was determined using the uracil | incorporation assay.

c1ccc(C23CCCC(c4ccccc4)(CC2)OO3)cc1 [JHU 2886]
toxicity in L929 cells, in words (L929 cells; 50 μM): some toxicity
toxicity in L929 cells, in words (L929 cells; 24, 48 and 72 hours, concentrations as high as 10 μM): little toxicity
Toxicity, Score (L929 cells; 24 hours, dose 0.1 μM): 1 (≤20%)
Toxicity, Mean (L929 cells; 24 hours, dose 0.1 μM): 0.129
Toxicity, Score (L929 cells; 24 hours, dose 1.0 μM): 0
Toxicity, Mean (L929 cells; 24 hours, dose 1.0 μM): 0.133
Toxicity, Score (L929 cells; 24 hours, dose 10.0 μM): 0
Toxicity, Mean (L929 cells; 24 hours, dose 10.0 μM): 0.130
Toxicity, Score (L929 cells; 24 hours, dose 50.0 μM): 2 (>20%-≤40%)
Toxicity, Mean (L929 cells; 24 hours, dose 50.0 μM): 0.089
Toxicity, Score (L929 cells; 48 hours, dose 0.1 μM): 0
Toxicity, Mean (L929 cells; 48 hours, dose 0.1 μM): 0.227
Toxicity, Score (L929 cells; 48 hours, dose 1.0 μM): 0
Toxicity, Mean (L929 cells; 48 hours, dose 1.0 μM): 0.219
Toxicity, Score (L929 cells; 48 hours, dose 10.0 μM): 0
Toxicity, Mean (L929 cells; 48 hours, dose 10.0 μM): 0.217
Toxicity, Score (L929 cells; 48 hours, dose 50.0 μM): 2 (>20%-≤40%)
Toxicity, Mean (L929 cells; 48 hours, dose 50.0 μM): 0.147
Toxicity, Score (L929 cells; 72 hours, dose 0.1 μM): 0
Toxicity, Mean (L929 cells; 72 hours, dose 0.1 μM): 0.479
Toxicity, Score (L929 cells; 72 hours, dose 1.0 μM): 0
Toxicity, Mean (L929 cells; 72 hours, dose 1.0 μM): 0.460
Toxicity, Score (L929 cells; 72 hours, dose 10.0 μM): 0
Toxicity, Mean (L929 cells; 72 hours, dose 10.0 μM): 0.448
Toxicity, Score (L929 cells; 72 hours, dose 50.0 μM): 2 (>20%-≤40%)
Toxicity, Mean (L929 cells; 72 hours, dose 50.0 μM): 0.275
inhibition at 0.1 µM (L929 cells; 24 hours, dose 0.1 μM): 0.26%
inhibition at 1 µM (L929 cells; 24 hours, dose 1.0 μM): 0%
inhibition at 10 µM (L929 cells; 24 hours, dose 10.0 μM): 0%
inhibition at 50 µM (L929 cells; 24 hours, dose 50.0 μM): 31.2%
inhibition at 0.1 µM (L929 cells; 48 hours, dose 0.1 μM): 0%
inhibition at 1 µM (L929 cells; 48 hours, dose 1.0 μM): 0%
inhibition at 10 µM (L929 cells; 48 hours, dose 10.0 μM): 0%
inhibition at 50 µM (L929 cells; 48 hours, dose 50.0 μM): 30.4%
inhibition at 0.1 µM (L929 cells; 72 hours, dose 0.1 μM): 0%
inhibition at 1 µM (L929 cells; 72 hours, dose 1.0 μM): 0%
inhibition at 10 µM (L929 cells; 72 hours, dose 10.0 μM): 0%
inhibition at 50 µM (L929 cells; 72 hours, dose 50.0 μM): 37.4%
antiparasitic activity, in words (Toxoplasma gondii; 24 and 48 hours, all concentrations tested): significant antiparasitic activity
Activity, Score (Toxoplasma gondii; 24 hours, dose 0.1 μM): 2 (>20%-≤40%)
Activity, Mean (Toxoplasma gondii; 24 hours, dose 0.1 μM): 6079
Activity, Score (Toxoplasma gondii; 24 hours, dose 1.0 μM): 3 (>40%-≤70%)
Activity, Mean (Toxoplasma gondii; 24 hours, dose 1.0 μM): 2668
Activity, Score (Toxoplasma gondii; 24 hours, dose 10.0 μM): 4 (>70%-≤90%)
Activity, Mean (Toxoplasma gondii; 24 hours, dose 10.0 μM): 1967
Activity, Score (Toxoplasma gondii; 24 hours, dose 50.0 μM): 4 (>70%-≤90%)
Activity, Mean (Toxoplasma gondii; 24 hours, dose 50.0 μM): 2104
Activity, Score (Toxoplasma gondii; 48 hours, dose 0.1 μM): 1 (≤20%)
Activity, Mean (Toxoplasma gondii; 48 hours, dose 0.1 μM): 14841
Activity, Score (Toxoplasma gondii; 48 hours, dose 1.0 μM): 1 (≤20%)
Activity, Mean (Toxoplasma gondii; 48 hours, dose 1.0 μM): 12880
Activity, Score (Toxoplasma gondii; 48 hours, dose 10.0 μM): 4 (>70%-≤90%)
Activity, Mean (Toxoplasma gondii; 48 hours, dose 10.0 μM): 4428
Activity, Score (Toxoplasma gondii; 48 hours, dose 50.0 μM): 4 (>70%-≤90%)
Activity, Mean (Toxoplasma gondii; 48 hours, dose 50.0 μM): 1808
antiparasitic activity, in words (Toxoplasma gondii; 72 hours, 1 μM and above): significant activity
Activity, Score (Toxoplasma gondii; 72 hours, dose 0.1 μM): 1 (≤20%)
Activity, Mean (Toxoplasma gondii; 72 hours, dose 0.1 μM): 6934
Activity, Score (Toxoplasma gondii; 72 hours, dose 1.0 μM): 1 (≤20%)
Activity, Mean (Toxoplasma gondii; 72 hours, dose 1.0 μM): 6219
Activity, Score (Toxoplasma gondii; 72 hours, dose 10.0 μM): 4 (>70%-≤90%)
Activity, Mean (Toxoplasma gondii; 72 hours, dose 10.0 μM): 1321
Activity, Score (Toxoplasma gondii; 72 hours, dose 50.0 μM): 4 (>70%-≤90%)
Activity, Mean (Toxoplasma gondii; 72 hours, dose 50.0 μM): 1252
inhibition at 1 µM (Toxoplasma gondii; 24 hours, dose 1.0 μM): 69.6%
inhibition at 10 µM (Toxoplasma gondii; 24 hours, dose 10.0 μM): 77.6%
inhibition at 50 µM (Toxoplasma gondii; 24 hours, dose 50.0 μM): 76%
inhibition at 0.1 µM (Toxoplasma gondii; 48 hours, dose 0.1 μM): 6.18%
inhibition at 1 µM (Toxoplasma gondii; 48 hours, dose 1.0 μM): 18.6%
inhibition at 10 µM (Toxoplasma gondii; 48 hours, dose 10.0 μM): 72%
inhibition at 50 µM (Toxoplasma gondii; 48 hours, dose 50.0 μM): 88.6%
inhibition at 0.1 µM (Toxoplasma gondii; 72 hours, dose 0.1 μM): 3.24%
inhibition at 1 µM (Toxoplasma gondii; 72 hours, dose 1.0 μM): 13.2%
inhibition at 10 µM (Toxoplasma gondii; 72 hours, dose 10.0 μM): 81.6%
inhibition at 50 µM (Toxoplasma gondii; 72 hours, dose 50.0 μM): 82.5%
